# Experimental data published in publication PMC7332124, “Design, One Pot Synthesis and Molecular Docking Studies of Substituted-1H-Pyrido[2,1-b] Quinazolines as Apoptosis-Inducing Anticancer Agents” (Asian Pacific Journal of Cancer Prevention : APJCP, 2020).
# Where two headings read alike, the source gives them in different places.
# Legend:
# A549 [1] = assay: MTT cytotoxicity assay; format: cell-based, human; settings: A549 adenocarcinoma (lung), MTT, 72 h, read-out: In vitro Inhibitory Concentration (IC50)
# Protocol: (§1) Various cancer cells were used to screen anticancer activity of newly synthesized compounds. Lung (A549 and NCI-H460), colon (HCT-15 and HT-29), prostate (DU-145) cancer cells maintained in RPMI-1640 media while normal lung fibroblasts cell line (HFL-1) were maintained in F-12 k medium supplemented with 10% fetal bovine serum (FBS) with 1% antibiotic-antimycotic solution (Sigma). Cells were maintained in 5% CO2 with 98% relative humidity at 37 °C in incubator. When 80-90% of confluency is reached, they were sub-cultured using 0.25% trypsin/1 mM EDTA solution for further passage. The compounds in this series were dissolved in DMSO (1 %) to prepare the stock solution of 10 mM. Further dilutions were made accordingly with respective media to obtain the required concentrations.
# (§2) MTT assay measures the reduction of MTT (3-(4,5-dimethylthiazol- 2-yl)-2,5-diphenyl tetrazolium bromide) by mitochondrial succinate dehydrogenase enzyme to insoluble formazan crystals. Since reduction of MTT occurs only in metabolically active cells, the level of activity is the measure of the viability of the cells.(Pordeli et al., 2017). Briefly, cells were plated in 96-well plates at a density of 3,000 to 6,000 cells per well in 100 µl of complete medium and allowed to grow overnight. Then the cells were treated with different concentrations of the synthesized compounds and incubated for 72 h. After the treatment, 100 µl of MTT (0.5 mg/ml) was added and incubated at 37 °C for 4 h. Then MTT reagent was aspirated and formazan crystals formed were dissolved by the addition of 200 µL of DMSO for 20 min at 37 °C. The formazan product quantity was measured by using a spectrophotometric microtiter plate reader (Spectra Max, M4 Molecular devices, USA) at 570 nm wavelength(Nekkanti et al., 2017).
# DU-145 [2] = assay: MTT cytotoxicity assay; format: cell-based, human; settings: DU-145 prostate cancer, 72 h, read-out: In vitro Inhibitory Concentration (IC50)
# Protocol: as §1, §2
# HCT-15 [3] = assay: MTT cytotoxicity assay; format: cell-based, human; settings: HCT-15 colon cancer, 72 h, read-out: In vitro Inhibitory Concentration (IC50)
# Protocol: as §1, §2
# [4] = test system: HFL-1 normal lung fibroblasts; assay: MTT cytotoxicity assay; format: cell-based, human; settings: read-out: In vitro Inhibitory Concentration (IC50)
# Protocol: as §1, §2
# HT-29 [5] = assay: MTT cytotoxicity assay; format: cell-based, human; settings: HT-29 colorectal cancer, 72 h, read-out: In vitro Inhibitory Concentration (IC50)
# Protocol: as §1, §2
# NCI-H460 [6] = assay: MTT cytotoxicity assay; format: cell-based, human; settings: NCI-H460 lung carcinoma, 72 h, read-out: In vitro Inhibitory Concentration (IC50)
# Protocol: as §1, §2
# A549 [7] = assay: Cell growth inhibition assay (MTT, day 0 subtracted); format: cell-based, human; settings: 72 h, read-out: In vitro Growth Inhibitory Concentration (GI50)
# Protocol: as §1
# (§3) Briefly, the cells were seeded on to a 96-well plate in 100 µl of medium. Following 24 h MTT reagent was added in few wells and day 0 absorbance was analyzed, and then cells were treated with compounds and incubated for an additional 72 h. After the treatment, 100 µl of MTT (0.5 mg/ml) was added and incubated at 37 °C for 4 h. Then MTT reagent was suctioned, the insoluble formazan crystals were dissolved in DMSO and formazan product formed is measured at 570 nm wavelength. The day 0 absorbance was subtracted from the 72 h incubated plates and data were plotted as a percentage of untreated control (Dai et al., 2011).
# DU-145 [8] = assay: as above; format: cell-based, human; settings: 72 h, read-out: In vitro Growth Inhibitory Concentration (GI50)
# Protocol: as §1, §3
# HCT-15 [9] = assay: as above; format: cell-based, human; settings: 72 h, read-out: In vitro Growth Inhibitory Concentration (GI50)
# Protocol: as §1, §3
# [10] = test system: HFL-1 normal lung fibroblasts; assay: as above; format: cell-based, human; settings: read-out: In vitro Growth Inhibitory Concentration (GI50)
# Protocol: as §1, §3
# HT-29 [11] = assay: as above; format: cell-based, human; settings: 72 h, read-out: In vitro Growth Inhibitory Concentration (GI50)
# Protocol: as §1, §3
# NCI-H460 [12] = assay: as above; format: cell-based, human; settings: 72 h, read-out: In vitro Growth Inhibitory Concentration (GI50)
# Protocol: as §1, §3
Compound,GI50 (A549 [7]; Homo sapiens) [µM],GI50 (DU-145 [8]; Homo sapiens) [µM],GI50 (HCT-15 [9]; Homo sapiens) [µM],GI50 (HT-29 [11]; Homo sapiens) [µM],GI50 (NCI-H460 [12]; Homo sapiens) [µM],melting point [°C],GI50 (A549 [7]) [µM],IC50 (A549 [1]; Homo sapiens) [µM],IC50 (DU-145 [2]; Homo sapiens) [µM],IC50 (HCT-15 [3]; Homo sapiens) [µM],"IC50 ([4]; Homo sapiens, HFL1, 72 h) [µM]",IC50 (HT-29 [5]; Homo sapiens) [µM],IC50 (NCI-H460 [6]; Homo sapiens) [µM],"GI50 ([10]; Homo sapiens, HFL1, 72 h) [µM]",IC50 (A549 [1]) [µM],IC50 (DU-145 [2]) [µM],IC50 (HCT-15 [3]) [µM],IC50 ([4]; 72 h) [µM],IC50 (HT-29 [5]) [µM],IC50 (NCI-H460 [6]) [µM],other results
"COc1ccc(C2C3=C(CCCC3)N=C3C=CC=CN32)cc1 (stereo not drawn) [Compound 4d, 11-(4-Methoxyphenyl)-2,3,4, 11-tetrahydro-1H-pyrido[2,1-b]quinazoline]",> 30,> 30,> 30,> 30,> 30,88 to 89,–,> 30,> 30,> 30,> 30,> 30,> 30,> 30,–,–,–,–,–,–,–
"O=[N+]([O-])c1ccc(C2C3=C(CCCC3)N=C3C=CC=CN32)cc1 (stereo not drawn) [Compound 4c, 11-(4-Nitrophenyl)-2,3,4, 11-tetrahydro-1H-pyrido[2,1-b]quinazoline]",> 30,> 30,> 30,> 30,> 30,150 to 151,–,> 30,> 30,> 30,> 30,> 30,> 30,> 30,–,–,–,–,–,–,–
"Clc1ccc(C2C3=C(CCCC3)N=C3C=CC=CN32)cc1 (stereo not drawn) [Compound 4b, 11-(4-Chlorophenyl)-2,3,4, 11-tetrahydro-IH-pyrido [2,1-b] quinazoline]",–,–,–,–,–,–,> 30,–,–,–,–,–,–,–,> 30,> 30,> 30,> 30,> 30,> 30,GI50 (DU-145 [8]): > 30 µM; GI50 (HCT-15 [9]): > 30 µM; GI50 ([10]; 72 h): > 30 µM; GI50 (HT-29 [11]): > 30 µM; GI50 (NCI-H460 [12]): > 30 µM
"C1=CC2=NC3=C(CCCC3)C(c3ccccc3)N2C=C1 (stereo not drawn) [Compound 4a, 11-Phenyl-2,3,4, 11-tetrahydro-1H-pyrido [2,1-b] quinazoline]",> 30,> 30,> 30,> 30,> 30,154 to 156,–,> 30,> 30,> 30,> 30,> 30,> 30,> 30,–,–,–,–,–,–,–
"11-(4-trimethoxyphenyl)-2, 3, 4, 11-tetrahydro-1H-pyrido[2,1-b] quinazoline [Compound 4h]",–,–,–,–,–,–,> 30,–,–,–,–,–,–,–,> 30,> 30,> 30,> 30,> 30,> 30,GI50 (DU-145 [8]): > 30 µM; GI50 (HCT-15 [9]): > 30 µM; GI50 ([10]; 72 h): > 30 µM; GI50 (HT-29 [11]): > 30 µM; GI50 (NCI-H460 [12]): > 30 µM
Cc1ccc(C2C3=C(CCCC3)N=C3C=CC=CN32)cc1 (stereo not drawn) [Compound 4e],–,–,–,–,–,–,29.5 ± 0.79,–,–,–,–,–,–,–,43.1 ± 2.43,23.2 ± 0.25,40.9 ± 0.55,85 ± 3.8,39.5 ± 1.4,43.2 ± 2.58,GI50 (DU-145 [8]): 17.7 ± 0.13 µM; GI50 (HCT-15 [9]): 23.44 ± 0.2 µM; GI50 ([10]; 72 h): 68.6 ± 3.2 µM; GI50 (HT-29 [11]): 15.8 ± 0.97 µM; GI50 (NCI-H460 [12]): 20.8 ± 1.82 µM

# The next lines start with results.
GI50 (A549 [7]; Homo sapiens) [µM],GI50 (DU-145 [8]; Homo sapiens) [µM],GI50 (HCT-15 [9]; Homo sapiens) [µM],GI50 (HT-29 [11]; Homo sapiens) [µM],GI50 (NCI-H460 [12]; Homo sapiens) [µM],melting point [°C],GI50 (A549 [7]) [µM],Compound,IC50 (A549 [1]; Homo sapiens) [µM],IC50 (DU-145 [2]; Homo sapiens) [µM],IC50 (HCT-15 [3]; Homo sapiens) [µM],"IC50 ([4]; Homo sapiens, HFL1, 72 h) [µM]",IC50 (HT-29 [5]; Homo sapiens) [µM],IC50 (NCI-H460 [6]; Homo sapiens) [µM],"GI50 ([10]; Homo sapiens, HFL1, 72 h) [µM]",IC50 (A549 [1]) [µM],IC50 (DU-145 [2]) [µM],IC50 (HCT-15 [3]) [µM],IC50 ([4]; 72 h) [µM],IC50 (HT-29 [5]) [µM],IC50 (NCI-H460 [6]) [µM],other results
9.23 ± 0.93,7.37 ± 2.5,10 ± 0.97,20.8 ± 3.74,17.5 ± 2.05,88 to 93,–,"Fc1ccc(C2C3=C(CCCC3)N=C3C=CC(Cl)=CN32)cc1 (stereo not drawn) [Compound 4g, 8-chloro-11-(4-fluorophenyl)-2,3,4,11-tetrahydro-1H-pyrido[2,1-b]quinazoline]",25.5 ± 3.98,32.9 ± 3.77,28.6 ± 1.96,63.1 ± 1.79,41.3 ± 1.43,41.5 ± 1.27,41.7 ± 0.98,–,–,–,–,–,–,–
8.64 ± 0.4,11.3 ± 0.34,12.9 ± 0.73,11.43 ± 0.06,9.62 ± 0.41,131 to 132,–,"ClC1=CN2C(=NC3=C(CCCC3)C2c2ccc(Cl)cc2)C=C1 (stereo not drawn) [Compound 4f, 8-Chloro-11-(4-chlorophenyl)-2,3,4, 11-tetrahydro-1H-pyrido [2,1-b] quinazoline]",12.8 ± 1.5,16.08 ± 0.14,19.3 ± 1.16,15.2 ± 0.3,15.4 ± 0.11,12.6 ± 0.35,11.6 ± 0.17,–,–,–,–,–,–,–
5.79 ± 0.14,8.1 ± 0.1,7.81 ± 0.65,4.4 ± 0.2,7.1 ± 0.19,180 to 182,–,"C1=CC2=NC3=C(CCCC3)C(c3c[nH]c4ccccc34)N2C=C1 (stereo not drawn) [Compound 4j, 11-(1H-indol-3-yl)-2,3,4, 11-tetrahydro-1H-pyrido [2,1-b]quinazoline]",8.98 ± 0.32,12.6 ± 0.23,10.9 ± 0.4,9.31 ± 0.32,7.25 ± 0.38,9.27 ± 0.54,7.67 ± 0.22,–,–,–,–,–,–,–
